Data taken from patent publication US6399614B1, “1-(N-phenylaminoalkyl)piperazine derivatives substituted at position 2 of the phenyl ring” (Recordati S.A. Chemical and Pharmaceutical Company, priority 1997, dated 2002).

Columns and labels:
[1] = tested on: rhythmic bladder voiding contractions; test: Volume-induced rhythmic bladder voiding contractions in anaesthetized rats; format: in vivo, rat; conditions: Rattus norvegicus, intravenous; for ED (10 min disappearance of contractions): extrapolated dose inducing 10 min of disappearance of the contractions, anaesthetized rats, read-out: ED10 min; for ED50: extrapolated dose inducing a reduction of the number of contractions >30% in 50% of treated rats, read-out: ED50 (frequency)
Protocol: Female Sprague Dawley rats weighing 225-275 g (Crl: CDo BR, Charles River Italia) were used. The animals were housed with free access to food and water and were maintained on a forced 12 h alternating light-dark cycle at 22-24° C. for at least one week, except during the experiment. The activity on the rhythmic bladder voiding contractions was evaluated according to the method of Dray (J. Pharmacol. Methods, 13:157, 1985), with some modifications as in Guarneri (Pharmacol. Res., 27:173, 1993). Briefly, rats were anesthetized by subcutaneous injection of 1.25 g/kg (5 ml/kg) urethane, after which the urinary bladder was catheterized via the urethra using PE 50 polyethylene tubing filled with physiological saline. The catheter was tied in place with a ligature around the external urethral orifice and was connected with conventional pressure transducers (Statham P23 ID/P23 XL). […] The bladder was then filled via the recording catheter by incremental volumes of warm (37° C.) saline until reflex bladder voiding contractions occurred (usually 0.8-1.5 ml). For intravenous (i.v.) injection of bioactive compounds, PE 50 polyethylene tubing filled with physiological saline was inserted into the jugular vein. From the cystometrogram, the number of contractions recorded 15 min before (basal values) and after treatment, as well as the mean amplitude of these contractions (mean height of the peaks in mmHg) was evaluated.
Since most compounds produced an effect that was relatively rapid in onset and led to a complete cessation of bladder contractions, bioactivity was conveniently estimated by measuring the duration of bladder quiescence (i.e., the duration of time during which no contractions occurred). The number of animals tested showing a reduction in the number of contractions >30% of that observed in the basal period was also recorded.
Also computed in this manner were extrapolated doses which induced a reduction of the number of contractions of greater than 30% in 50% of treated rats (ED50, frequency) by the method of Bliss (Bliss C. I., Quart. J. Pharm. Pharmacol. 11, 192-216, 1938). After the suppressive effects of drug injection wore off, the height of the contractile peaks was compared with the height of the peaks previously recorded after the control intravenous administration of vehicle. The potency of the tested compounds (ED50 value: the extrapolated doses inducing a 30% reduction of amplitude of the contractions in 50% of treated rats) was evaluated on a quantal basis by the method of Bliss (Bliss C. I., Quart. J. Pharm. Pharmacol. 11, 192-216, 1938).

[2] = target: T1, human 5-HT1A serotonergic receptor (Homo sapiens, UniProt P08908); test: Radioreceptor binding, recombinant human 5-HT1A receptors ([3H]8-OH-DPAT, HeLa membranes); conditions: for Ki: recombinant human receptor, [3H]8-OH-DPAT, Ki from IC50 by Cheng & Prusoff, read-out: Binding affinity for the 5-HT1A receptor, Ki
T1 construct: expressed in transfected cells; host or cells: HeLa
T1 sequence (P08908 1-422): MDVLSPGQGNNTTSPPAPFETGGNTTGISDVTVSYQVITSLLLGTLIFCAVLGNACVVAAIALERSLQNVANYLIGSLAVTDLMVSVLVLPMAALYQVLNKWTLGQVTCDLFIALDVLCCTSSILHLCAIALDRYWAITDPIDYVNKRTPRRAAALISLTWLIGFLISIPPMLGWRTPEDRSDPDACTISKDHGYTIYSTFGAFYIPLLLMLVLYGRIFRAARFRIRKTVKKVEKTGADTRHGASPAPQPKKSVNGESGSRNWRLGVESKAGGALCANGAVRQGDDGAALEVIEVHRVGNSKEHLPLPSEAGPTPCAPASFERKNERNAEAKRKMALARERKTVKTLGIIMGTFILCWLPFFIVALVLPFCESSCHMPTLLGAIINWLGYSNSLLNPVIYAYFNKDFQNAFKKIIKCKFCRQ
How it was run: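 Membranes from HeLa cells stably transfected with human 5-HT1A clone G-21 incubated 30 min at 30° C with 0.2-1 nM [3H]8-OH-DPAT in 50 mM Tris HCl pH 7.4, 2.5 mM MgCl2, 10 μM pargiline; nonspecific binding with 10 μM 5-HT. Filtration assay; IC50 from curve fitting converted to Ki by Cheng-Prusoff.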

| SMILES | affinity for 5-HT1A receptors (in words) [2] | Ki [2] [nM] | ED (10 min disappearance of contractions) [1] [mg/kg] | ED50 [1] [mg/kg] |
| --- | --- | --- | --- | --- |
| O=C(C1CCCCC1)N(CCN1CCN(c2cccc3[nH]ccc23)CC1)c1ccccc1[N+](=O)[O-] [Example 13, 1-[N-(2-nitrophenyl)-N-cyclohexylcarbonyl-2-aminoethyl]-4-(4-indolyl)piperazine] | – | 0.5 | 0.266 | 0.029 |
| COC(=O)c1ccccc1N(CCN1CCN(c2ccccc2OC)CC1)C(=O)C1CCCCC1 [Example 18, 1-[N-(2-methoxycarbonylphenyl)-N-cyclohexylcarbonyl-2-aminoethyl]-4-(2-methoxyphenyl)piperazine] | – | 0.6 | 0.101 | 0.017 |

The next lines start with results.

| affinity for 5-HT1A receptors (in words) [2] | Ki [2] [nM] | SMILES | ED (10 min disappearance of contractions) [1] [mg/kg] | ED50 [1] [mg/kg] |
| --- | --- | --- | --- | --- |
| very high affinity | – | COc1ccccc1N1CCN(CCN(C(=O)C2CCCCC2)c2ccccc2)CC1 [Compound A, 1-(N-phenyl-N-cyclohexylcarbonyl-2-aminoethyl)-4-(2-methoxyphenyl)piperazine, reference compound] | 0.65 | 0.033 |
| very high affinity | – | COc1ccccc1N1CCN(CCN(C(=O)C2CCCCC2)c2ccccc2[N+](=O)[O-])CC1 [Example 2, 1-[N-(2-nitrophenyl)-N-cyclohexylcarbonyl-2-aminoethyl]-4-(2-methoxyphenyl) piperazine] | 0.06 | 0.009 |
| – | 0.14 | COc1ccccc1N1CCN(CCN(C(=O)C2CCCCC2)c2ccccc2OC)CC1 [Example 23, 1-[N-(2-methoxyphenyl)-N-cyclohexylcarbonyl-2-aminoethyl]-4-(2-methoxyphenyl)piperazine] | 0.093 | 0.018 |
